Earlier results in patent US12629339B2, “Lithium salt extended-release formulations; methods of making; and methods of use thereof” (Almatica Pharma LLC, priority 2023, dated 2026).

Details: serum lithium level

[Li] [lithium]
Toxic concentration of lithium: ≥ 1.5 mEq/L
